What was measured:
HBV εRNA = assay: εRNA/oligonucleotide hybridization inhibition assay with rRNA competitor; format: binding, Hepatitis B virus; settings: for IC50: radiolabeled εRNA, 60-fold excess rRNA competitor; for Specificity: ratio RRE+rRNA IC50/εRNA+rRNA IC50, max = inactive in RRE assay
Text: One assay used in determining the activity of the compounds of the present invention is disclosed in copending U.S. patent application Ser. No. 08/709,342, filed Sep. 6, 1996, the disclosure of which is hereby incorporated herein by reference in its entirety. The assay detects the interaction between target RNA molecule and a test ligand by measuring the ligand's ability to inhibit hybridization between the RNA and a specific complementary oligonucleotide. In one embodiment, the target RNA is radiolabelled and the oligonucleotide is labeled with biotin; in this case, the extent of hybridization is determined by measuring the amount of radiolabeled RNA detected with a streptavidin/biotin-based capture system.
Concentrations of test compounds of between about 0.1 μM and about 200 μM are assayed for inhibition using radiolabeled εRNA in the absence or presence of a large excess of an unlabeled non-specific RNA competitor (such as, e.g., ribosomal RNA, rRNA). Compounds that bind εRNA non-specifically are competitively displaced by the rRNA, resulting in reduced or no inhibition of hybridization between the radiolabeled εRNA and the biotinylated oligonucleotide. Conversely, the inhibitory activity of compounds that specifically bind εRNA is not affected by the presence of the competitor rRNA.
The high throughput assays were performed in 96-well plates containing eighty drugs (5 μl, 60 μg/ml in DMSO) distributed one per well in columns 2-6 and 8-12 of the 8×12 96-well array. The remaining 16 wells in columns 1 and 7 were filled with 5 μl DMSO to serve as the control reactions. 45 μl of reaction mixture containing buffer, salts and radiolabeled target RNA were delivered on each well of the compound-containing plates to yield a 50 μl mixture containing 50 mM Tris-HCl, pH 7.5, 200 mM KCl, 5 mM MgCl2, 5 mM DTT, 6 μg/ml test compound, and 25 nM [^32 P]-labeled εRNA. The reaction was started by addition of the biotinylated oligonucleotide, 262.104 A (5 μl) to a final concentration of 100 nM. The reaction was incubated at 25° C. for 60 minutes, and then 5 μl of 0.3 mg/ml SAAP (streptavidin alkaline phosphatase conjugate, Pierce, Rockford, Ill.) was added. The reaction was incubated for an additional 30 minutes at 25° C. and filtered through 96-well format HATF nitrocellulose filters (Millipore, Bedford, Mass.) using a multiscreen vacuum manifold (Millipore, Bedford, Mass.). Subsequently, 300 μl of wash buffer (50 mM Tris-HCl, pH 7.5, 200 mM KCl) was filtered through to wash the filters. The filters were dried and supplemented with 20 μl scintillation fluid (Super Mix, Wallac Oy, Turku, Finland). The amount of hybrids formed was determined by scintillation counting of the radiolabeled εRNA retained on the filters.
The inhibitory effect of a test compound (expressed as percentage of inhibition, % Inh.) was calculated using the following formula: […]
where Ro is the average retention of hybrids in the 16 identical control reactions in columns 1 and 7 and Rx is the hybrids retained in the presence of a test drug, x.
(§1) Biotinylated oligonucleotides 262.104 A (5′-biotin-TTAGGCACAGCTTGGAGGCTTGAACAGTG-3′) and 208.92 A (5′-biotin-CGTCATTGACGCTGCGCCCA-3′) were synthetically prepared (Oligos Etc., Willsonville, Oreg.). These oligonucleotides are complementary to regions of the εRNA and RRE RNA targets, respectively.
A plasmid containing the target sequence following the bacteriophage SP6 promoter was used as a template for the synthesis of radiolabeled εRNA using [α^32 P]-UTP and SP6 RNA polymerase as described by the suppliers, e.g., Ambion, Austin, Tex., and by methods well known to those of ordinary skill in the art.
Compounds that inhibited the primary screening assay described above were individually titrated in the same assay at concentrations between 0.1 μM and 200 μM in the absence and presence of 60-fold excess rRNA as a non-specific competitor. […]

HIV derived RRE RNA = assay: heterologous hybridization inhibition assay with RRE RNA; format: binding; settings: radiolabeled RRE RNA, rRNA competitor
Text: Specificity is further tested in a third assay in which the radiolabeled RNA is the HIV derived RRE RNA and the biotinylated oligonucleotide is complementary to RRE. Compounds with high specific activity for εRNA are not expected to be inhibitory in the RRE RNA based assay. The specificity of the ligand for εRNA is expressed as the ratio between the IC50 value obtained with the specific target RNA and the IC50 value obtained with a heterologous target (RRE RNA), both in the presence of competitor RNA.
as §1
Compounds that inhibited the primary screening assay described above were individually titrated in the same assay at concentrations between 0.1 μM and 200 μM in the absence and presence of 60-fold excess rRNA as a non-specific competitor. A third titration was performed in a heterologous assay using radiolabeled RRE RNA as the target and the complementary biotinylated oligonucleotide 208.92 A. From these three assays, the IC50 values and specificity for each compound was calculated.
IC50 values using rRNA competitor (from Example 1) and radiolabeled RRE RNA are shown in Table 1 for the following ligands. […] Specificity is calculated as the ratio of RRE+rRNA IC50/εRNA+rRNA IC50.

SMILES	IC50 (HBV εRNA) [µM]	Specificity (HBV εRNA)	RRE + rRNA IC50 (μM) (HIV derived RRE RNA)	IC50 (HIV derived RRE RNA) [µM]
CCCCN(CCCC)c1nc(NN=Cc2cc(Br)cc(Br)c2OC)nc(Nc2ccc([N+](=O)[O-])cc2)n1 [Compound 72]	120	max.	inactive	
O=[N+]([O-])c1ccc(Nc2nc(NN=Cc3ccc(O)c([N+](=O)[O-])c3)nc(N3CCOCC3)n2)cc1 [Compound 152]	300	0.5		150
O=C(C(=NNc1nc(NCc2ccccc2)nc(Nc2ccc([N+](=O)[O-])cc2)n1)c1ccccc1)c1ccccc1 [Compound 131]	36.7	1.0		36.7
CN1CCN(c2nc(NN=Cc3cccc(Br)c3)nc(Nc3ccc([N+](=O)[O-])cc3)n2)CC1 [Compound 95]	13.7	2.8		39
Clc1ccccc1C=NNc1nc(Nc2ccccc2)nc(N2CCCC2)n1 [Compound 127]	80	1.0		80
O=[N+]([O-])c1ccc(Nc2nc(NN=Cc3c(O)ccc4ccccc34)nc(N3CCOCC3)n2)cc1 [Compound 96]	15	5.0		75
O=[N+]([O-])c1ccc(Nc2nc(NN=CC(Br)=Cc3ccccc3)nc(Nc3ccccc3)n2)cc1 [Compound 17]	15.1	max.	inactive	
Cc1cc(I)cc(C=NNc2nc(Nc3ccc([N+](=O)[O-])cc3)nc(N3CCCCC3)n2)c1O [Compound 109]	20	1.8		35
Brc1cc2c(cc1C=NNc1nc(Nc3ccccc3)nc(N3CCCCC3)n1)OCO2 [Compound 70]	80.6	max.	inactive	
Clc1ccccc1C=NNc1nc(Nc2ccccc2)nc(N2CCOCC2)n1 [Compound 73]	120	max.	inactive	
Cc1[nH]c2ccccc2c1C=NNc1nc(Nc2ccc([N+](=O)[O-])cc2)nc(N2CCCCCC2)n1 [Compound 92]	2.5	4.0		10.1
O=C1Nc2ccccc2C1=NNc1nc(Nc2ccc([N+](=O)[O-])cc2)nc(N2CCCCC2)n1 [Compound 153]	500	1.0		500
C(=NNc1nc(NCc2ccccc2)nc(Nc2ccccc2)n1)c1ccccc1 [Compound 84]	120	max.	inactive	
O=[N+]([O-])c1ccc(Nc2nc(NN=Cc3ccccc3I)nc(N3CCCCC3)n2)cc1 [Compound 124]	29.9	10.0		300
O=[N+]([O-])c1cccc(C=NNc2nc(Nc3cccc4ccccc34)nc(N3CCOCC3)n2)c1O [Compound 64]	71.9	max.	inactive	
Oc1ccc(C=NNc2nc(Nc3ccccc3)nc(N3CCCC3)n2)c(O)c1 [Compound 119]	35	7.1		250
O=[N+]([O-])c1ccc(Nc2nc(NN=Cc3ccccc3F)nc(N3CCCCCC3)n2)cc1 [Compound 48]	30	max.	inactive	

SMILES	IC50 (HBV εRNA) [µM]	Specificity (HBV εRNA)	RRE + rRNA IC50 (μM) (HIV derived RRE RNA)	IC50 (HIV derived RRE RNA) [µM]
COc1ccc(C=NNc2nc(Nc3ccccc3)nc(Nc3ccc(C)cc3C)n2)cc1 [Compound 126]	60.1	8.3		500
Cc1ccc(C=NNc2nc(Nc3ccccc3)nc(Nc3ccc([N+](=O)[O-])cc3)n2)cc1 [Compound 66]	114	max.	inactive	
CCCCN(CCCC)c1nc(NN=Cc2ccc(C=NNc3nc(Nc4ccc([N+](=O)[O-])cc4)nc(N(CCCC)CCCC)n3)cc2)nc(Nc2ccc([N+](=O)[O-])cc2)n1 [Compound 154]	1180	0.3		300
CCOc1ccc(C=NNc2nc(Nc3ccc([N+](=O)[O-])cc3)nc(N3CCCCC3)n2)cc1O [Compound 129]	25	4.8		120
O=[N+]([O-])c1ccc(Nc2nc(NN=Cc3ccc(Cl)c(Cl)c3)nc(N3CCCCC3)n2)cc1 [Compound 57]	50.1	max.	inactive	
O=[N+]([O-])c1ccc(Nc2nc(NN=Cc3c4ccccc4cc4ccccc34)nc(N3CCCCC3)n2)cc1 [Compound 37]	30.1	max.	inactive	
O=[N+]([O-])c1ccc(Nc2nc(NN=Cc3ccc(-c4ccc([N+](=O)[O-])cc4)o3)nc(N3CCOCC3)n2)cc1 [Compound 69]	70	max.	inactive	
O=[N+]([O-])c1ccc(Nc2nc(NN=Cc3cc(Cl)ccc3O)nc(N3CCOCC3)n2)cc1 [Compound 106]	12.1	5.8		70.1
CCCCN(CCCC)c1nc(N/N=C/c2c3ccccc3cc3ccccc23)nc(Nc2ccc([N+](=O)[O-])cc2)n1 [Compound 55]	100	max.	inactive	
O=C1Nc2ccccc2C1=NNc1nc(Nc2ccc([N+](=O)[O-])cc2)nc(N2CCOCC2)n1 [Compound 130]	32.9	12.2		400
O=[N+]([O-])c1ccc(Nc2nc(NN=Cc3cc(I)ccc3O)nc(N3CCCCC3)n2)cc1 [Compound 108]	16.1	2.5		40
O=[N+]([O-])c1ccc(Nc2nc(NN=Cc3cccc(Oc4ccc([N+](=O)[O-])cc4[N+](=O)[O-])c3)nc(N3CCCCCC3)n2)cc1 [Compound 116]	20	1.3		25.1
COc1ccc(/C=N/Nc2nc(Nc3ccc([N+](=O)[O-])cc3)nc(N3CCOCC3)n2)cc1 [Compound 75]	160	max.	inactive	
CCCCN(CCCC)c1nc(NN=Cc2ccccc2OC)nc(Nc2ccc([N+](=O)[O-])cc2)n1 [Compound 86]	200	max.	inactive	
Nc1cccc(Nc2nc(Nc3cccc(N)c3)nc(N(c3ccccc3)c3ccccc3)n2)c1 [Compound 32]	32.6	max.	inactive	
C(=N\Nc1nc(Nc2ccccc2)nc(N2CCOCC2)n1)/c1c[nH]c2ccccc12 [Compound 79]	169	max.	inactive	
